Entries after “also recorded” stand apart in the source; their conditions may differ. Where two headings read alike, the source gives them in different places.
Experiments:
[1] = biological target: mGAT1 (Mus musculus, UniProt P31648); assay: [3H]GABA uptake assay, mGAT1; type: cell-based
[2] = test system: SIM-A9 cells; assay: Intracellular O2•-, DHE probe, SIM-A9; type: cell-based, mouse
[3] = test system: ICR-CD1 mice; assay: Dose safety verification after oral (i.g.) administration; type: in vivo; details: 10 mg/kg i.g.
Description: phosphatase (ALP), amylase, and lactate dehydrogenase (LDH) were measured in the accredited biochemical laboratory of the Department of Clinical Biochemistry and Diagnostics, University Hospital, Hradec Kralove, Czech Republic. Statistical data analysis was performed through IBM SPSS Statistics version 26 (IBM, Armonk, NY, USA) using the Kolmogorov-Smirnov and Shapiro-Wilk tests to test data normality. Due to normally distributed data, the Student´s t-test was used to assess the differences compared with the control group (p ≤ 0.05).
Samples of the liver and kidney were used for standard histopathological examination. Organs were fixed with 10% neutral buffered formalin (Bamed s.r.o., Ceske Budejovice, Czech Republic), histologically processed, and stained with hematoxylin and eosin (both Merck) according to Pejchal et al.[41] The histopathological changes were evaluated using a BX-51 microscope (Olympus, Tokyo, Japan).
Dose safety verification after oral administration
Mice were randomly assigned to the experimental groups of two males and two females per one selected dose (10 mg/kg) of 6 to verify its safety. 6 was administered by a probe (i.g., 0.1 mL/10 g of animal weight; 1% Tween 80). Treated animals were intensively observed for signs of toxicity; then, the animals were subjected to macroscopic examination. The blood was collected for biochemical analysis of glucose, urea, and creatinine concentration and the activity of alanine transaminase (ALT), aspartate transaminase (AST), gamma-glutamyl transferase (GGT), alkaline phosphatase (ALP), amylase, and creatine kinase (CK). Selected organs (terminal esophagus, stomach, duodenum, pancreas, kidney, and liver) were collected for histopathologic examination. […]

[4] = Pharmacokinetic study after i.g. administration; type: in vivo; details: mice
Description: Pharmacokinetic study after i.p. and i.g administration
mg/kg), blood samples were collected from mice under deep terminal anesthesia directly by cardiac puncture into heparinized 1.5 mL tubes at selected time intervals.
The samples were centrifuged at 3,000 × g for 10 min (10 °C), and the plasma samples were stored at -80 °C until the HPLC analysis.
The blood in brain vessels would interfere with the assay of actual brain tissue concentrations.
Therefore, the animals were perfused transcardially with saline solution (0.9% NaCl) for 5 min (10 mL/min). After perfusion, the skull was opened, and the brain was carefully removed and immediately stored at -80 °C until the HPLC analysis.
UHPLC-MS method for pharmacokinetics study
Ultra high-performance liquid chromatography system consisting of Ultimate 3000 RS pump Dionex (Thermo Scientific, San Jose, CA, USA) coupled with high-resolution mass spectrometer with orbitrap analyzer (Q Exactive Focus, Thermo Scientific, San Jose, CA, USA) was used in quantitative analyses of 6 in plasma and brain homogenate. According to the EMA[43] and FDA[42] guidelines on Bioanalytical method validation, the method was fully validated for plasma and partially for brain homogenate.
Before analysis, 50 μL of plasma or brain homogenate was precipitated with an internal
standard of 200 μL acetonitrile (ACN). The mixture was vortexed for 1 min at 1,500 rpm and
centrifuged at 12,074 g for 5 min at 20 °C. The supernatant was then transferred to an
injection vial and analyzed.
mm ID (Phenomenex, Torrance, CA, USA), protected with a guard column SecurityGuard
was performed in gradient elution mode with a flow rate of 0.6 mL/min and the following
composition of mobile phase: A) 0.1% FA in water (v/v) and B) 0.1% FA in ACN/MeOH in
The column was kept at 45 °C during
analysis. Samples were held at 10 °C in a light-tight autosampler unit.
Heated-Electrospray Ionization II interface (HESI-II) in positive ion mode was used with the
following settings: spray voltage; +3.5 kV, S-lens RF level; +70 V, capillary temperature 350
°C, auxiliary gas heater temperature; 350 °C, sheet, and auxiliary gas flow; 45 and 15
arbitrary units, respectively. Full MS mode was used at resolution (m/𝛥m) ̴70,000 for
Xcalibur software (v 4.0) was used for data evaluation.

[5] = test system: mice; assay: Locomotor activity test; type: in vivo; details: 10 and 30 mg/kg i.p.
Description: Effect on depressive-like behavior - forced swim test
The experiment was carried out according to Porsolt et al.[48] with small modifications.
Briefly, mice were individually placed in a glass cylinder (25 cm high, 10 cm in diameter) containing 11 cm of water maintained at 23–25 °C and were left therein for 6 min. A mouse was regarded as immobile when it remained floating on the water, making only small movements to keep its head above it. The total duration of immobility was measured during the final 4 min of a 6-min test session.
Effect on anxiety - four-plate test
The four-plate apparatus (FPT; Bioseb, France) consists of a cage (25 × 18 × 16 cm) that is floored with four rectangular metal plates (11 × 8 cm). The plates are separated from one another by a 4 mm gap, and they are connected to an electroshock generator. […] The number of punished crossings was counted […]
of the closed arms. […] The following parameters were measured in this test: time spent in open arms of the EPM device and the number of entries to open arms. […]
crossings) were counted during the next 60 min of the test. […]
For the analysis of data obtained in the in vivo tests GraphPad Prism software (v. 9.0, CA, USA) was used. Numerical results from the tests were expressed as mean ± standard error of the mean (SEM). […]
In this fear-motivated task the effect of 6 on scopolamine-induced cognitive dysfunction was assessed. […]

With O[C@H](CNCC1CC1)[C@H](Cc1ccccc1)NC1c2ccccc2-c2ccccc21 [Compound 6] the IC50 [1] was 11 µM, the “increase in intracellular O2•-” value ([2]; all concentrations and times) was “no significant increase” and the “decrease of O2•- level” value ([2]; conc. = IC50, 24 h) was 26%. The Necropsy [3] was “no pathology of internal organs”, the signs of toxicity [3] was “no signs of poisoning occurred; also recorded: no signs of toxicity occurred” and the “ALP, plasma” value ([3]; 48 h) was 61.2 ± 6.2 U/L. The “ALT, plasma” value ([3]; 48 h) was 30.0 ± 1.6 U/L, the “AST, plasma” value ([3]; 48 h) was 51.3 ± 7.0 U/L and the “Amylase, plasma” value ([3]; 48 h) was 2630 ± 110 U/L. The “CK, plasma” value ([3]; 48 h) was 123 ± 25 U/L, the “Glucose, plasma” value ([3]; 48 h) was 205 ± 16 mg/dL and the “Urea, plasma” value ([3]; 48 h) was 38.6 ± 2.5 mg/dL. The “blood biochemistry vs control” value ([3]; 48 h) was “no significant changes; also recorded: lack of significant changes in blood biochemistry”, the histopathological examinations ([3]; liver, kidney, esophagus, stomach, duodenum, pancreas) was “no tissue damage” and the Kp ([4]; ICR-CD1, mouse, brain and plasma, po, 10 mg/kg, 10 mg/kg i.g., read-out: Kp (AUCbrain/AUCplasma), brain-to-plasma ratio) was 1.98. It also gave a Tmax ([4]; ICR-CD1, mouse, brain, po, 10 mg/kg, 10 mg/kg i.g., read-out: brain Tmax (converted)) of 3.33 h, a Cmax ([4]; ICR-CD1, mouse, plasma, po, 10 mg/kg, 10 mg/kg i.g.) of 120 ± 30.7 ng/mL and a half-life ([4]; ICR-CD1, mouse, plasma, po, 10 mg/kg, 10 mg/kg i.g., plasma, read-out: Half-life) of 3.54 ± 0.449 h. It also gave a Vd/F ([4]; ICR-CD1, mouse, plasma, po, 10 mg/kg, 10 mg/kg i.g., plasma, read-out: Vss/F) of 120 ± 22.1 L/kg, a Vd/F ([4]; ICR-CD1, mouse, plasma, po, 10 mg/kg, 10 mg/kg i.g., plasma, read-out: Vz/F) of 102 ± 22.9 L/kg and a Tmax ([4]; ICR-CD1, mouse, plasma, po, 10 mg/kg, 10 mg/kg i.g., read-out: plasma Tmax (converted)) of 1.33 h. The MRT ([4]; ICR-CD1, mouse, po, 10 mg/kg i.g., plasma) was 6.08 h, the k el ([4]; ICR-CD1, mouse, po, 10 mg/kg i.g., plasma, read-out: λz (converted)) was 6e-05 s⁻¹ and the “plasma AUCtotal i.g. as % of AUCtotal after i.p. administration of the same dose” value ([4]; 10 mg/kg) was “approximately 60%”. For the same compound, the “brain AUCtotal” value ([4]; 10 mg/kg i.g.) was 68,547.70 ± 9,216.46 min.ng/g, the “brain Cmax” value ([4]; 10 mg/kg i.g.) was 158.63 ± 20.04 ng/g and the “plasma AUCtotal” value ([4]; 10 mg/kg i.g.) was 34,630.80 ± 4,866.51 min.ng/mL. For the same compound, the CL ([4]; 10 mg/kg i.g., plasma) was 320 ± 50 mL/min/kg, the half-life ([4]; 10 mg/kg i.g., plasma, 10 mg/kg) was 3.53 h and the “plasma Cmax” value ([4]; 10 mg/kg i.g., 10 mg/kg) was 120 ng/mL. For the same compound, the locomotor activity [5] was “None of these doses significantly affected the locomotor activity”.
